Data set [1] relates to Gi1 heterotrimer with NPY-bound Y1R. The data set can be described thus: GTP turnover assay. The format is biochemical, human. Here is the method: GTP turnover assay was performed using GTPase-Glo assay kit (Promega)[22]. […] NPY-bound Y1R (4 μM) was mixed with 1 μM Gi1 heterotrimer (containing Gαi produced from E. coli or Sf9 cells) in an assay buffer consisting of 20 mM HEPES pH 8.0, 150 mM NaCl, 0.03% DDM, 0.003% CHS, 100 μM TCEP, 5 μM GDP, and 2.5 μM GTP. After incubation for 3 h, reconstituted GTPase-Glo reagent was added to the sample and incubated for 30 min at room temperature. Then, detection reagent was mixed and incubated for 10 min at room temperature. Luminescence was measured using a FlexStation 3 multi-mode microplate reader (Molecular Devices) and data were analyzed by GraphPad Prism 9.2.0.

A further data set deals with wild-type Y1R / Gi1. The data set can be described thus: BRET Gi1 recruitment assay, wild-type Y1R. Type of data set: cell-based, human. The note with it: result in words. A general note: In BRET a luciferase serves as donor, and the signal depends on an acceptor being close.
The subject of another data set is Y1R. The note with it: cited from earlier work.
Setting [2] is: alanine mutants of NPY, ref [10],[26].

Like-named read-outs stand apart in the source and are kept apart here.

Protocol for wild-type Y1R / Gi1: Forty-eight hours of post-transfection, cells were detached with PBS supplemented with 20 mM EDTA and evenly spread into white 96-well microplates (SPL). […] All BRET data were collected using a Mithras LB940 instrument (Berthold), and graphs were plotted using GraphPad Prism 9.2.0.
each sample represent the mean and S.E.M. (standard error of mean) of n=six independent experiments, respectively. Each circle represents an individual data point from the experiment.

Consider “Gi1 (Sf9): purified Gi1 heterotrimer containing Gαi1 produced from Sf9 insect cells”, for which the “reduced luminescence signal (GTP hydrolytic activity)” value in data set [1] (GTPase-Glo, 1 μM Gi1, 4 μM NPY-bound Y1R, 3 h, three independent experiments) is given as 95.1%.
Turning to Gi (sf9), the GTP turnover is given as 2592.3 in data set [1] (1st, Buffer 7216.3); 2856.7 in data set [1] (2nd, Buffer 7401.3); 2743.4 in data set [1] (3rd, Buffer 7365.4).
For “NPY-COOH: carboxyl-NPY (NPY-COOH), non-amidated NPY”, the Gi1 recruitment result in the data set with wild-type Y1R / Gi1 was “does not induce recruitment of Gi1”.
Consider R33A: R33A mutation of NPY, for which the Y1R binding result in the data set with Y1R (setting [2]) is given as “most severe defects in Y1R binding”.
On to R35A: R35A mutation of NPY, for which the Y1R binding result in the data set with Y1R (setting [2]) is given as “most severe defects in Y1R binding”.
As for Y1R, the GTP turnover came out at 7542.9 in data set [1] (1st, Buffer 7216.3); 7352.2 in data set [1] (2nd, Buffer 7401.3); 7960.2 in data set [1] (3rd, Buffer 7365.4).
Turning to Y36A: Y36A mutation of NPY, the Y1R binding result in the data set with Y1R (setting [2]) is listed as “loss of binding to Y1R”.
With Y36F: Y36F mutation of NPY, the Y1R binding entry with Y1R (NPY mutant, ref [26]) was “relatively mild effect on Y1R binding”.

Source of the values: publication PMC8844075 (Nature Communications, 2022).
